Assay results reported in article PMC12040169 (PLOS Biology, 2025).

Assay: in vitro
Conditions: human, hela cells, % viability

| Structure (SMILES) | viability at 28.5 h, 10 µM [%] | viability at 28.5 h, 10 µM (bulk resorufin, single well) [%] |
| --- | --- | --- |
| CCOc1ccc(S(=O)(=O)N2CCN(Cc3cc(C(=O)OC)n(C)c3)CC2)c2cccnc12 [CBK062796] | 92.6 | – |
| O=C(C1=C(O)C(=O)N(CCCn2ccnc2)C1c1ccncc1)c1ccccc1 (centres unmarked) [CBK264527] | 91.6 | – |
| CC(C)(C)C(=O)NC(=S)Nc1ccc(Cc2ccncc2)cc1 [CBK269717] | 91.5 | – |
| Cc1nc2ccc(C(=O)NC(C)(C)CN3CCCC(C)C3)cc2[nH]1 (centres unmarked) [CBK282629] | 85.3 | – |
| CCN1CCCC1CN(Cc1ccccn1)Cc1ccco1 (centres unmarked) [CBK283161] | 91.3 | – |
| Nc1nc(N)c2nc(C3OCCO3)cnc2n1 [CBK027115] | 114 | – |
| Cc1sc(NC(=S)NC(=O)Cc2cccc3ccccc23)c(C(N)=O)c1C [CBK266344] | 91.4 | – |
| COc1ccc(C2=NN(c3ccc(C(=O)O)cc3)C(c3ccc(OC)c(OC)c3)C2)cc1 (centres unmarked) [CBK296134] | 111 | – |
| Cn1cc(Cl)c(C2CCCCCN2S(=O)(=O)c2ccc3[nH]c(=O)[nH]c(=O)c3c2)n1 (centres unmarked) [CBK286408] | 89.3 | – |
| Cc1cc(C)n(C(=O)c2cn3cc(Cl)ccc3n2)n1 [CBK288185] | 98.6 | – |
| NS(=O)(=O)c1ccc2c(c1)N(Cc1nc(-c3ccco3)no1)CC2 [CBK304291] | 71.9 | – |
| O=C(c1ccc(OC(F)(F)F)cc1)N1CCC2(CCCNC2)C1 (centres unmarked) [CBK137156C] | 87.7 | – |
| Cc1ccc(N2C(=O)c3ccc(S(=O)(=O)c4cccc(C(=O)O)c4)cc3C2=O)c(C)c1 [CBK262783] | 86.2 | – |
| CC(C(=O)Nc1cccc(F)c1)N1CCN(Cc2cccnc2)CC1 (centres unmarked) [CBK305408] | 109 | – |
| Cc1nnc2c(N3CCN(CCO)CC3)nc3ccccc3n12 [CBK270146] | 83.2 | – |
| COc1ccc(S(=O)(=O)N(C)CC(=O)N2CCN(Cc3ccccc3)CC2)cc1C [CBK268221] | 99.6 | – |
| O=S1(=O)N=C(N2CCN(Cc3ccc4c(c3)OCO4)CC2)c2ccccc21 [CBK266064] | 104 | – |
| CCn1cc(CN2CCCCCC2c2cc(C)on2)c(C)n1 (centres unmarked) [CBK282140] | 80.7 | – |
| COC(=O)Nc1nc2cc3cn[nH]c3cc2[nH]1 [CBK016129] | 105 | – |
| O=C(O)CCSc1ccnc2ccccc12 [CBK122524C] | 93.2 | – |
| Cc1ccc(NC(=O)Nc2ccc(F)cc2)cc1S(=O)(=O)N(C)C [CBK269482] | 92.8 | – |
| O=C(Cn1ccc(=O)[nH]c1=O)NCC1(Sc2ccccc2)CC1 [CBK306242] | 110 | – |
| Cc1ccc(CO)cc1NC(=O)[C@@H]1CN(Cc2ccccc2)C[C@H]1C(=O)c1ccc(F)cc1 [CBK286431] | 105 | – |

| Structure (SMILES) | viability at 28.5 h, 10 µM [%] | viability at 28.5 h, 10 µM (bulk resorufin, single well) [%] |
| --- | --- | --- |
| COc1cccc(CNCc2ccccc2[N+](=O)[O-])c1OC [CBK262198] | 98 | – |
| FC(F)(F)c1ccc(OCCNc2ccccc2)nc1 [CBK115828] | 101 | – |
| CC(C)(C)c1csc(NC(=O)C2CCCCC2)n1 [CBK058720] | 98.1 | – |
| O=C1CC(C(=O)N2CCN(c3ncccn3)CC2)c2ccccc21 (centres unmarked) [CBK144505] | 99.2 | – |
| CC(C(=O)Nc1ccc2oc(-c3ccccc3)nc2c1)(c1ccccc1)c1ccccc1 [CBK263928] | 91 | – |
| CCN(CC)CCN1C(=O)C(O)=C(C(=O)c2ccc(Cl)cc2)C1c1cccc(Br)c1 (centres unmarked) [CBK265165] | 112 | – |
| O=C(NCc1nc2ccccc2[nH]1)c1cc(Br)cnc1N1CCOCC1 [CBK076278] | 96.7 | – |
| O=C(Nc1cccc(NS(=O)(=O)c2ccc(Cl)cc2)c1)c1ccco1 [CBK265956] | 91.2 | – |
| CC1=C[C@@H](CNS(C)(=O)=O)[C@H](C(C)C)C[C@H]1Cc1nnc(-c2ccccc2F)o1 [CBK289226] | 116 | – |
| CC(C)CNC(=S)N[C@H]1CO[C@H]2[C@@H]1OC[C@@H]2Nc1nccc(C(C)(C)C)n1 [CBK289523] | 90.9 | – |
| CNC(=O)CN(C)C(=O)c1coc(COc2ccc3sc(C)nc3c2)n1 [CBK307571] | 83.1 | – |
| CC(C)Cc1ccc(C(CC(=O)O)C(=O)O)cc1 (centres unmarked) [CBK286703] | 109 | – |
| CC(=O)c1c(C)oc2ccc(N(C(=O)c3cccc([N+](=O)[O-])c3)S(=O)(=O)c3cccc4cccnc34)cc12 [CBK267044] | 70.2 | – |
| COc1cccc(NC(=O)CCn2ncc(Cl)c2C)c1 [CBK288012] | 94.9 | – |
| COc1cc(C(=O)NCc2c(-c3ccccc3)noc2C)cc(OC)c1OC [CBK144097] | 93.9 | – |
| N#Cc1cccc(CN2CCC(Cc3ccccc3)CC2)c1 [CBK126380] | 87.1 | – |
| COc1ccc(OCC(=O)Nc2nonc2-c2ccccc2)cc1 [CBK287798] | 93.9 | – |
| Cc1cccn2c(=O)cc(CN3CCn4c(nnc4C4CC4)C3)nc12 [CBK305232] | 102 | – |
| COc1cccc(CN2CCN(C(=O)Cc3cccs3)[C@@H](C)C2)c1 [CBK285487] | 104 | – |
| Nc1ncc2cc(C(F)(F)F)ccc2n1 [CBK100705] | 107 | – |
| CCCC/C=C/c1nccnc1NCCCO [CBK038006] | 102 | – |
| O=[N+]([O-])c1cc(S(=O)(=O)Nc2nnc(C(F)(F)F)s2)ccc1Cl [CBK062021] | 105 | – |
| COc1ccc(-c2cc(C(=O)NCc3ccc4c(c3)OCO4)cnc2-c2ccccc2)cn1 [CBK037571] | 97.9 | – |

| Structure (SMILES) | viability at 28.5 h, 10 µM [%] | viability at 28.5 h, 10 µM (bulk resorufin, single well) [%] |
| --- | --- | --- |
| Cc1nc(CN2CCN(C(=O)C3C4CCCCC43)CC2)cs1 (centres unmarked) [CBK281607] | 93.8 | – |
| CN(CC(N)=O)c1nc(-c2cccnc2)nc2ccccc12 [CBK306346] | 87 | – |
| C[C@@H](Cn1nc2c(cc1=O)CCCC2)NC(=O)c1ccco1 [CBK284559] | 92.2 | – |
| N=C(N)SCCCCCSC(=N)N [CBK278314B] | 88.2 | – |
| Cc1ccc(NC(=O)C2CCCCC2C(=O)O)cc1Cl (centres unmarked) [CBK286938] | 99.9 | – |
| O=C(Nc1cccnc1N1CCNCC1)c1ccccn1 [CBK029425T] | 116 | – |
| COc1cc(/C=C(/C#N)c2ccc(C(=O)O)cc2)ccc1OCc1cccc([N+](=O)[O-])c1 [CBK269057] | 108 | – |
| O=C(COc1ccc2ccccc2c1)Nc1ccc(S(=O)(=O)N2CCCCC2)cc1 [CBK263765] | 118 | – |
| CC(C)NCc1c(O)c(Br)cc2oc3c(c12)CCCC3 [CBK160400] | 96.5 | – |
| C(=N\Nc1ccc2nn(-c3ccccc3)nc2c1)/c1c[nH]c2ccccc12 [CBK261064] | 91.6 | – |
| O=C(c1ccccc1)N1CCc2[nH]nc(-c3ccccc3)c2C1 [CBK287904] | 92.5 | – |
| CSc1nc(=O)c(CCC(=O)O)n[nH]1 [CBK019689] | 110 | – |
| CCN1C(=O)C2(CC(=O)N(CC(=O)OC)C2=O)c2cc(Cl)ccc21 (centres unmarked) [CBK075234] | 93.7 | – |
| CN1CCCN(c2cncc(-c3cccc(OC(F)(F)F)c3)n2)CC1 [CBK065949] | 102 | – |
| CSc1ccc(-c2nc(C)c(C(C)=O)n2O)cc1 [CBK288356] | 92.5 | – |
| Clc1cc2nc(Sc3ccccn3)c(N3CCCC3)nc2cc1Cl [CBK093754] | 100 | – |
| COC(=O)c1ccccc1NC(=O)c1c(C)c(-c2ccc(C)cc2)nc2ccccc12 [CBK263641] | 94.9 | – |
| COC(=O)CC1C(=O)NCCN1C(=O)COc1ccc(Cl)cc1 (centres unmarked) [CBK264938] | 80 | – |
| Cc1noc(C)c1S(=O)(=O)Nc1nnn[nH]1 [CBK062378] | 112 | – |
| COc1ccc2ncc(C(=O)O)c(Nc3ccccc3C)c2c1 [CBK269522C] | 104 | – |
| COC(=O)CCC1(C)CN(C)CCC1=O (centres unmarked) [CBK028494] | 85 | – |
| Cc1ccc(-c2cc(C(=O)N3CCN(C4CCS(=O)(=O)C4)CC3)c3ccccc3n2)cc1 (centres unmarked) [CBK297153] | 112 | – |
| Cc1ccc(OC(C)C(=O)N2CCCc3c(cnn3C)C2)cc1 (centres unmarked) [CBK282242] | 98.2 | – |

| Structure (SMILES) | viability at 28.5 h, 10 µM [%] | viability at 28.5 h, 10 µM (bulk resorufin, single well) [%] |
| --- | --- | --- |
| O=C(O)C1C2CCC(O2)C1C(=O)NC1CCCCC1 (centres unmarked) [CBK286848] | – | 85 |
| COc1ccc(CN(C)c2c(C)nc3c(OCCc4cccc(OC)c4)cccn23)cc1 [CBK147467] | 109 | – |
| CC(C)(C)c1ccc(OCCCC(=O)Nc2ccc(N3CCOCC3)cc2)cc1 [CBK264783] | 88.8 | – |
| CCN(CC)S(=O)(=O)c1ccc(Cl)c(C(=O)Oc2cccc3cccnc23)c1 [CBK263205] | 118 | – |
| O=C(Nc1cccc(F)c1C(=O)Nc1ccc(F)cc1F)c1cccs1 [CBK066849] | 87.3 | – |
| CCOC(=O)C1CCCN(CCC(=O)Nc2cccc(C)c2)C1 (centres unmarked) [CBK264158C] | 107 | – |
| CSCCOc1cncc(N2CCCC2)n1 [CBK115761] | 101 | – |
| Cc1cc([N+](=O)[O-])cc[n+]1[O-] [CBK261014] | 102 | – |
| CCN(CC(=O)N1CCN(C)CC1)S(=O)(=O)c1cc(Cl)ccc1Cl [CBK269297] | 104 | – |
| Cc1nc(NS(=O)(=O)c2ccc3ccccc3c2)sc1C(=O)O [CBK045548] | 105 | – |
| Nc1cc2ccccc2c(-c2cccc(C(F)(F)F)c2)n1 [CBK085721] | 101 | – |
| CC(=O)N1CC[C@H]2NC(=O)CNC(=O)C3(CCCC[C@H]2C1)CCN(C(=O)c1n[nH]c2c1CCC2)CC3 [CBK292012] | 102 | – |
| Nc1nonc1-c1noc(-c2cccc(Cl)c2)n1 [CBK026691] | 90.2 | – |
| OCCNc1nc(Nc2ccc(O)cc2)nc2ccccc12 [CBK266606C] | 97.3 | – |
| NC(=O)CN(Cc1ccc(Cl)cc1)S(=O)(=O)c1ccccc1 [CBK264149] | 99.5 | – |
| O=C(N/N=C\c1ccc(-c2ccc(Cl)c(Cl)c2)o1)C1COc2cc3ccccc3cc2O1 (centres unmarked) [CBK262834] | 99 | – |
| COc1ccc([C@H]2CN(C(=O)c3ccccn3)[C@@H]3CCCN(C(C)=O)[C@H]23)cc1 [CBK285523] | 91.4 | – |
| COc1ccc(C2=NNC(c3ccc(C(=O)O)cc3)C2)cc1 (centres unmarked) [CBK287167] | 78 | – |
| Cn1c([C@H]2CCN(C(=O)c3cnccn3)C2)nc2ccccc21 [CBK289416] | 110 | – |
| CS(=O)(=O)N1CC2(CCNCC2)c2ccccc21 [CBK005171] | 94.4 | – |
